Patent US20230278972A1, “SUBSTITUTED HALOALKYL SULFONANILIDE HERBICIDES” (FMC Corporation, priority 2020, published 2023)

How the values were obtained:
Format in all cases: in vivo
[1] = tested on: ragweed (common ragweed, Ambrosia artemisiifolia); experiment: Test A postemergence, ragweed; conditions: Postemergence; for Ragweed plant response rating: visual injury vs untreated controls after approx. 10 days
Method in brief: (§1)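 Postemergence ratings come from foliar sprays onto one- to two-leaf plants of 2 to 10 cm grown in loam/sand; preemergence ratings come from a directed spray onto the soil of newly seeded pots. Formulation was a surfactant-containing non-phytotoxic solvent blend.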

[2] = tested on: wheat (Triticum aestivum); experiment: Test A postemergence, wheat; conditions: Postemergence; for Wheat plant response rating: visual injury vs untreated controls after approx. 10 days
Method in brief: as §1

[3] = tested on: Ryegrass, Italian (Italian ryegrass, Lolium multiflorum); experiment: Test A postemergence, Ryegrass, Italian; conditions: Postemergence; for Ryegrass, Italian plant response rating: visual injury vs untreated controls after approx. 10 days
Method in brief: as §1

[4] = tested on: ragweed (common ragweed, Ambrosia artemisiifolia); experiment: Test A preemergence, ragweed; conditions: Preemergence; for Ragweed plant response rating: 125 g ai/ha, visual injury on 0 to 100 scale (0 no effect, 100 complete control), approximately 10 days; for Plant response rating, Ragweed: 0 to 100 scale (0 no effect, 100 complete control)
Method in brief: as §1

[5] = tested on: pigweed (Amaranthus retroflexus); experiment: Test A preemergence, pigweed; conditions: for Pigweed plant response rating: 125 g ai/ha, visual injury on 0 to 100 scale (0 no effect, 100 complete control), approximately 10 days; for Plant response rating, Pigweed: 0 to 100 scale (0 no effect, 100 complete control)
Method in brief: as §1

[6] = tested on: blackgrass (Alopecurus myosuroides); experiment: Test A postemergence, blackgrass; conditions: Postemergence, 0 to 100 scale (0 no effect, 100 complete control); for Blackgrass plant response rating: visual injury vs untreated controls after approx. 10 days
Method in brief: as §1

[7] = tested on: galium (catchweed bedstraw, Galium aparine); experiment: Test A postemergence, galium; conditions: Postemergence; for Galium plant response rating: visual injury vs untreated controls after approx. 10 days
Method in brief: as §1

[8] = tested on: corn (Zea mays); experiment: Test A postemergence, corn; conditions: Postemergence; for Corn plant response rating: visual injury vs untreated controls after approx. 10 days
Method in brief: as §1

[9] = tested on: Foxtail, Giant (giant foxtail, Setaria faberi); experiment: Test A preemergence, Foxtail, Giant; conditions: Preemergence; for Foxtail, Giant plant response rating: 125 g ai/ha, visual injury on 0 to 100 scale (0 no effect, 100 complete control), approximately 10 days; for Plant response rating, Foxtail, Giant: 0 to 100 scale (0 no effect, 100 complete control)
Method in brief: as §1

[10] = tested on: pigweed (Amaranthus retroflexus); experiment: Test A postemergence, pigweed; conditions: Postemergence; for Pigweed plant response rating: visual injury vs untreated controls after approx. 10 days
Method in brief: as §1

[11] = tested on: barnyardgrass (Echinochloa crus-galli); experiment: Test A preemergence, barnyardgrass; conditions: Preemergence; for Barnyardgrass plant response rating: 125 g ai/ha, visual injury on 0 to 100 scale (0 no effect, 100 complete control), approximately 10 days; for Plant response rating, Barnyardgrass: 0 to 100 scale (0 no effect, 100 complete control)
Method in brief: as §1

[12] = tested on: kochia (Bassia scoparia); experiment: Test A preemergence, kochia; conditions: Preemergence; for Kochia plant response rating: 125 g ai/ha, visual injury on 0 to 100 scale (0 no effect, 100 complete control), approximately 10 days; for Plant response rating, Kochia: 0 to 100 scale (0 no effect, 100 complete control)
Method in brief: as §1

[13] = tested on: barnyardgrass (Echinochloa crus-galli); experiment: Test A postemergence, barnyardgrass; conditions: Postemergence, 0 to 100 scale (0 no effect, 100 complete control); for Barnyardgrass plant response rating: visual injury vs untreated controls after approx. 10 days
Method in brief: as §1

[14] = tested on: Foxtail, Giant (giant foxtail, Setaria faberi); experiment: Test A postemergence, Foxtail, Giant; conditions: Postemergence; for Foxtail, Giant plant response rating: visual injury vs untreated controls after approx. 10 days
Method in brief: as §1

[15] = tested on: Ryegrass, Italian (Italian ryegrass, Lolium multiflorum); experiment: Test A preemergence, Ryegrass, Italian; conditions: Preemergence; for Ryegrass, Italian plant response rating: 125 g ai/ha, visual injury on 0 to 100 scale (0 no effect, 100 complete control), approximately 10 days; for Plant response rating, Ryegrass, Italian: 0 to 100 scale (0 no effect, 100 complete control)
Method in brief: as §1

[16] = tested on: kochia (Bassia scoparia); experiment: Test A postemergence, kochia; conditions: Postemergence; for Kochia plant response rating: visual injury vs untreated controls after approx. 10 days
Method in brief: as §1

[17] = 125 g ai/ha, visual injury approx. 10 days, 0 to 100 scale (0 no effect, 100 complete control)
[18] = 500 g ai/ha, visual injury, 0 to 100 scale (0 no effect, 100 complete control), approx. 10 days
[19] = 125 g ai/ha, visual injury approx. 10 days
[20] = 500 g ai/ha, visual injury, approx. 10 days
[21] = 31 g ai/ha, visual injury on 0 to 100 scale (0 no effect, 100 complete control), approx. 10 days
[22] = 31 g ai/ha, visual injury, approx. 10 days
[23] = 500 g ai/ha, 0 to 100 scale (0 no effect, 100 complete control)
[24] = 125 g ai/ha, 0 to 100 scale (0 no effect, 100 complete control)

Cc1cc(C)c(N(S(C)(=O)=O)S(=O)(=O)C(F)(F)F)cc1-c1cc(C(C)C)nn(C)c1=O [Compound 39]
Plant response rating, Ragweed [1, 17]: 20
Plant response rating, Ragweed [1, 18]: 70
Plant response rating, Wheat [2, 17]: 60
Plant response rating, Wheat [2, 18]: 60
Plant response rating, Ryegrass, Italian [3, 17]: 0
Plant response rating, Ryegrass, Italian [3, 18]: 40
Ragweed plant response rating [4]: 0
Plant response rating, Ragweed ([4]; 500 g ai/ha): 30
Pigweed plant response rating [5]: 0
Plant response rating, Pigweed ([5]; 500 g ai/ha): 0
Plant response rating, Blackgrass [6, 19]: 0
Plant response rating, Blackgrass [6, 20]: 0
Plant response rating, Galium [7, 17]: 0
Plant response rating, Galium [7, 18]: 0
Plant response rating, Corn [8, 17]: 0
Plant response rating, Corn [8, 18]: 0
Foxtail, Giant plant response rating [9]: 10
Plant response rating, Foxtail, Giant ([9]; 500 g ai/ha): 90
Plant response rating, Pigweed [10, 17]: 0
Plant response rating, Pigweed [10, 18]: 0
Barnyardgrass plant response rating [11]: 40
Plant response rating, Barnyardgrass ([11]; 500 g ai/ha): 90
Kochia plant response rating [12]: 0
Plant response rating, Kochia ([12]; 500 g ai/ha): 0
Plant response rating, Barnyardgrass [13, 19]: 0
Plant response rating, Barnyardgrass [13, 20]: 30
Plant response rating, Foxtail, Giant [14, 17]: 0
Plant response rating, Foxtail, Giant [14, 18]: 0
Ryegrass, Italian plant response rating [15]: 30
Plant response rating, Ryegrass, Italian ([15]; 500 g ai/ha): 70
Plant response rating, Kochia [16, 17]: 0
Plant response rating, Kochia [16, 18]: 0

COC1CCN(C(=O)c2cc(NS(=O)(=O)C(F)(F)F)c(C)cc2C)C1 (centres unmarked) [Compound 113]
Plant response rating, Ragweed [1, 21]: 80
Plant response rating, Ragweed [1, 17]: 90
Plant response rating, Wheat [2, 21]: 0
Plant response rating, Wheat [2, 17]: 20
Plant response rating, Ryegrass, Italian [3, 21]: 20
Plant response rating, Ryegrass, Italian [3, 17]: 50
Plant response rating, Ragweed [4, 22]: 0
Ragweed plant response rating [4]: 60
Plant response rating, Pigweed [5, 22]: 30
Pigweed plant response rating [5]: 90
Plant response rating, Blackgrass ([6]; 31 g ai/ha): 0
Plant response rating, Blackgrass [6, 19]: 0
Plant response rating, Galium [7, 21]: 70
Plant response rating, Galium [7, 17]: 80
Plant response rating, Corn [8, 21]: 0
Plant response rating, Corn [8, 17]: 0
Plant response rating, Foxtail, Giant [9, 22]: 10
Foxtail, Giant plant response rating [9]: 60
Plant response rating, Pigweed [10, 21]: 80
Plant response rating, Pigweed [10, 17]: 90
Plant response rating, Barnyardgrass [11, 22]: 0
Barnyardgrass plant response rating [11]: 20
Plant response rating, Kochia [12, 22]: 10
Kochia plant response rating [12]: 50
Plant response rating, Barnyardgrass ([13]; 31 g ai/ha): 20
Plant response rating, Barnyardgrass [13, 19]: 80
Plant response rating, Foxtail, Giant [14, 21]: 0
Plant response rating, Foxtail, Giant [14, 17]: 30
Plant response rating, Ryegrass, Italian [15, 22]: 0
Ryegrass, Italian plant response rating [15]: 80
Plant response rating, Kochia [16, 21]: 10
Plant response rating, Kochia [16, 17]: 50

Cc1cc(C)c(-c2cc(C(F)(F)F)nn(C)c2=O)cc1NS(=O)(=O)C(F)(F)F [Compound 71]
Plant response rating, Ragweed [1, 17]: 0
Ragweed plant response rating [1, 23]: 0
Plant response rating, Wheat [2, 17]: 40
Wheat plant response rating [2, 23]: 70
Plant response rating, Ryegrass, Italian [3, 17]: 70
Ryegrass, Italian plant response rating [3, 23]: 80
Ragweed plant response rating [4]: 10
Plant response rating, Ragweed ([4]; 500 g ai/ha): 60
Pigweed plant response rating [5]: 40
Plant response rating, Pigweed ([5]; 500 g ai/ha): 60
Plant response rating, Blackgrass [6, 19]: 0
Blackgrass plant response rating ([6]; 500 g ai/ha): 70
Plant response rating, Galium [7, 17]: 50
Galium plant response rating [7, 23]: 80
Plant response rating, Corn [8, 17]: 0
Corn plant response rating [8, 23]: 30
Foxtail, Giant plant response rating [9]: 80
Plant response rating, Foxtail, Giant ([9]; 500 g ai/ha): 100
Plant response rating, Pigweed [10, 17]: 0
Pigweed plant response rating [10, 23]: 60
Barnyardgrass plant response rating [11]: 0
Plant response rating, Barnyardgrass ([11]; 500 g ai/ha): 100
Kochia plant response rating [12]: 80
Plant response rating, Kochia ([12]; 500 g ai/ha): 40
Plant response rating, Barnyardgrass [13, 19]: 0
Barnyardgrass plant response rating ([13]; 500 g ai/ha): 80
Plant response rating, Foxtail, Giant [14, 17]: 0
Foxtail, Giant plant response rating [14, 23]: 90
Ryegrass, Italian plant response rating [15]: 70
Plant response rating, Ryegrass, Italian ([15]; 500 g ai/ha): 100
Plant response rating, Kochia [16, 17]: 20
Kochia plant response rating [16, 23]: 40

Cc1cc(C(F)(F)F)c(C(=O)N2CCCCC2)cc1NS(=O)(=O)C(F)(F)F [Compound 180]
Plant response rating, Ragweed [1, 24]: 20
Ragweed plant response rating [1, 23]: 70
Plant response rating, Wheat [2, 24]: 0
Wheat plant response rating [2, 23]: 0
Plant response rating, Ryegrass, Italian [3, 24]: 0
Ryegrass, Italian plant response rating [3, 23]: 0
Ragweed plant response rating [4]: 20
Plant response rating, Ragweed ([4]; 500 g ai/ha): 70
Pigweed plant response rating [5]: 20
Plant response rating, Pigweed ([5]; 500 g ai/ha): 70
Plant response rating, Blackgrass ([6]; 125 g ai/ha): 0
Blackgrass plant response rating ([6]; 500 g ai/ha): 20
Plant response rating, Galium [7, 24]: 70
Galium plant response rating [7, 23]: 90
Plant response rating, Corn [8, 24]: 0
Corn plant response rating [8, 23]: 0
Foxtail, Giant plant response rating [9]: 0
Plant response rating, Foxtail, Giant ([9]; 500 g ai/ha): 90
Plant response rating, Pigweed [10, 24]: 50
Pigweed plant response rating [10, 23]: 70
Barnyardgrass plant response rating [11]: 0
Plant response rating, Barnyardgrass ([11]; 500 g ai/ha): 80
Kochia plant response rating [12]: 0
Plant response rating, Kochia ([12]; 500 g ai/ha): 0
Plant response rating, Barnyardgrass ([13]; 125 g ai/ha): 0
Barnyardgrass plant response rating ([13]; 500 g ai/ha): 10
Plant response rating, Foxtail, Giant [14, 24]: 10
Foxtail, Giant plant response rating [14, 23]: 10
Ryegrass, Italian plant response rating [15]: 0
Plant response rating, Ryegrass, Italian ([15]; 500 g ai/ha): 50
Plant response rating, Kochia [16, 24]: 10
Kochia plant response rating [16, 23]: 40
